In data set [1] the test system is SARS-CoV-2 (WK-521). Description: microbe, parasite or virus in culture. Conditions: Severe acute respiratory syndrome coronavirus 2, HEK-293T, 72 h, HEK293T/ACE2 cells, MOI=0.1, 3 days, qPCR of viral RNA in supernatant. The class given is cell-based. For orientation: Real-time PCR tracks product formation cycle by cycle.
Data set [2] concerns HEK293T/ACE2 cells. Conditions: human, 3 days.

Structures are written as SMILES. Bounds are passed on as bounds.

What is called CC50 is the concentration that lowers cell viability or growth by half. The low end stands for greater toxicity to the cells, the high end for lower toxicity to the cells. On to `CCCCn1c(=O)c2ccc(OCC(C)=O)cc2c2cc(C(O)(C(F)(F)F)C(F)(F)F)ccc21` [NR-93], for which the IC90 in data set [1] (read-out: IC50(μM) (footnote defines IC90: 90% inhibitory concentration)) was determined as 3.27 µM. Besides, the IC50 in data set [1] (read-out: IC50: 50% inhibitory concentration (reduces viral production and replication by 50%)) came to 243 nM. In data set [2], this compound showed a CC50 of over 20 µM.

The values above are taken from patent US20230192622A1, “ANTI-SARS-COV-2 DRUG” (ONCOLYS BIOPHARMA, INC., priority 2020, published 2023).
